Data published in PMC7613620, “Reaction hijacking of tyrosine tRNA synthetase as a whole-of-life-cycle antimalarial strategy” (Science (New York, N.Y.), 2022).

Experiment: Solubility
Assay type: physicochemical

Which solubility does the source give for Nc1ncnc2c1c(OC(F)F)nn2[C@@H]1O[C@H](COS(N)(=O)=O)[C@@H](O)[C@H]1O [ML901] here?
The solubility was > 200 µM.
